Source: patent US20240002332A1, “Small Molecule Inhibitors of SARS-CoV-2 Infections” (priority 2020, published 2024)
Values joined by “and” are separate entries in the source; they are usually repeats but may differ in a detail not shown here. Equal entries are not always repeated.

Assay: Pharmacokinetics in male hamsters, plasma and lung, IV 3 mg/kg or PO 30 mg/kg
Details: for Kp at 0.083 h / Kp at 4 h / Kp at 2 h / Kp at 8 h / Kp at 0.5 h / Kp at 1 h / Kp at […]: Ratio (Lung/Plasma)
Description: Compound P3 was administered intravenously (3 mg/kg dosing in 20% HP-β-CD in water) or orally (30 mg/kg dosing in 20% HP-β-CD in water).

[1] = Compound P3 IV 3 mg/kg, 0.083 h, individual animals, 3 mg/kg
[2] = Compound P3 IV 3 mg/kg, 4 h, individual animals, 3 mg/kg
[3] = Compound P3 IV 3 mg/kg, 8 h, individual animals, 3 mg/kg
[4] = Compound P3 IV 3 mg/kg, 24 h, individual animals, 3 mg/kg
[5] = Compound P3 PO 30 mg/kg, 0.5 h, individual animals, 30 mg/kg
[6] = Compound P3 PO 30 mg/kg, 1 h, individual animals, 30 mg/kg
[7] = Compound P3 PO 30 mg/kg, 2 h, individual animals, 30 mg/kg
[8] = Compound P3 PO 30 mg/kg, 4 h, individual animals, 30 mg/kg
[9] = Compound P3 PO 30 mg/kg, 8 h, individual animals, 30 mg/kg
[10] = Compound P3 intravenously or orally

## O=C(Nc1ccc([N+](=O)[O-])cc1Cl)c1cc(Cl)ccc1OC(=O)N1CCNCC1 [Compound P3, 4-chloro-2-((2-chloro-4-nitrophenyl)carbamoyl)phenyl piperazine-1-carboxylate]
[1]
  Lung: 15360 ng/g and 23120 ng/g
  Ratio (Lung/Plasma): 36.0 and 31.0
[2]
  Lung: 1436 ng/g and 2904 ng/g and 1800 ng/g
  Ratio (Lung/Plasma): 111 and 59.4
[3]
  Lung: 263 ng/g and 275 ng/g
  Ratio (Lung/Plasma): 45.3 and 76.3 and 109
Compound P3 IV 3 mg/kg, 24 h, individual animals
  plasma concentration: BLOQ
[4]
  Lung: 8.44 ng/g and 3.59 ng/g
  lung concentration, Conc. (ng/mL): BLOQ
[5]
  Lung: 113200 ng/g and 72400 ng/g and 33400 ng/g
  Ratio (Lung/Plasma): 53.2 and 59.7
[6]
  Lung: 82400 ng/g and 105600 ng/g
  Ratio (Lung/Plasma): 69.2 and 130
[7]
  Lung: 102000 ng/g and 74400 ng/g
  Ratio (Lung/Plasma): 96.2 and 108
[8]
  Lung: 48800 ng/g and 65200 ng/g
  Ratio (Lung/Plasma): 215 and 97.6 and 73.2
[9]
  Lung: 6800 ng/g and 2928 ng/g and 7080 ng/g
  Ratio (Lung/Plasma): 191 and 311
Compound P3 PO 30 mg/kg, 24 h, individual animals
  plasma concentration: BLOQ
Compound P3 PO 30 mg/kg, 24 h, individual animals, 30 mg/kg
  Lung: 38.2 ng/g and 22.6 ng/g and 11.1 ng/g
[10]
  amount of active metabolite in lung tissue relative to plasma concentration: significantly higher amount of active metabolite in lung tissue
  overall concentration of active metabolite: provided a higher overall concentration of active metabolite
male, hamster, in vivo, iv, 3 mg/kg, Lung (ng/g), Compound P3 IV 3 mg/kg, 0.083 h, individual animals
  concentration at 0.083 h: 27400 ng/g
male, hamster, in vivo, iv, 3 mg/kg, Lung (ng/g), Compound P3 IV 3 mg/kg, 8 h, individual animals
  concentration at 8 h: 270 ng/g
male, hamster, in vivo, iv, 3 mg/kg, Compound P3 IV 3 mg/kg, 0.083 h, individual animals
  Kp at 0.083 h: 34.1
male, hamster, in vivo, iv, 3 mg/kg, Compound P3 IV 3 mg/kg, 4 h, individual animals
  Kp at 4 h: 68.4
male, hamster, in vivo, iv, 3 mg/kg, Mean, Compound P3 IV 3 mg/kg, 0.083 h
  Kp at 0.083 h: 33.7
male, hamster, in vivo, iv, 3 mg/kg, Mean, Compound P3 IV 3 mg/kg, 2 h
  Kp at 2 h: 81
male, hamster, in vivo, iv, 3 mg/kg, Mean, Compound P3 IV 3 mg/kg, 4 h
  Kp at 4 h: 80
male, hamster, in vivo, iv, 3 mg/kg, Mean, Compound P3 IV 3 mg/kg, 8 h
  Kp at 8 h: 77
male, hamster, in vivo, po, 30 mg/kg, Lung (ng/g), Compound P3 PO 30 mg/kg, 1 h, individual animals
  concentration at 1 h: 106000 ng/g
male, hamster, in vivo, po, 30 mg/kg, Lung (ng/g), Compound P3 PO 30 mg/kg, 2 h, individual animals
  concentration at 2 h: 67600 ng/g
male, hamster, in vivo, po, 30 mg/kg, Lung (ng/g), Compound P3 PO 30 mg/kg, 4 h, individual animals
  concentration at 4 h: 65600 ng/g
male, hamster, in vivo, po, 30 mg/kg, Compound P3 PO 30 mg/kg, 0.5 h, individual animals
  Kp at 0.5 h: 89.1
male, hamster, in vivo, po, 30 mg/kg, Compound P3 PO 30 mg/kg, 1 h, individual animals
  Kp at 1 h: 98.1
male, hamster, in vivo, po, 30 mg/kg, Compound P3 PO 30 mg/kg, 2 h, individual animals
  Kp at 2 h: 88.6
male, hamster, in vivo, po, 30 mg/kg, Compound P3 PO 30 mg/kg, 8 h, individual animals
  Kp at 8 h: 194
male, hamster, in vivo, po, 30 mg/kg, Compound P3 PO 30 mg/kg, individual animals
  Kp at […]: 34.8
male, hamster, in vivo, po, 30 mg/kg, Mean, Compound P3 PO 30 mg/kg, 0.5 h
  Kp at 0.5 h: 67.4
male, hamster, in vivo, po, 30 mg/kg, Mean, Compound P3 PO 30 mg/kg, 1 h
  Kp at 1 h: 99
male, hamster, in vivo, po, 30 mg/kg, Mean, Compound P3 PO 30 mg/kg, 2 h
  Kp at 2 h: 98
male, hamster, in vivo, po, 30 mg/kg, Mean, Compound P3 PO 30 mg/kg, 4 h
  Kp at 4 h: 129
male, hamster, in vivo, po, 30 mg/kg, Mean, Compound P3 PO 30 mg/kg, 8 h
  Kp at 8 h: 232
male, hamster, in vivo, po, 30 mg/kg, Mean, Compound P3 PO 30 mg/kg
  Kp at […]: 32.3
